Measurements published in patent publication US20230167408A1, “METHODS AND COMPOSITIONS FOR MAINTAINING AND EXPANDING HEMATOPOIETIC STEM CELLS” (Trailhead Biosystems Inc., priority 2021, published 2023).
Entries after “also recorded” stand apart in the source; their conditions may differ.

How the values were obtained:
Format in all cases: cell-based, human
[1] = test system: CD34+ population of cells isolated from cord blood; assay: HD-DoE effector experiments, gene expression modeling after 3-day treatment; conditions: for factor contribution on expression of CRHBP: Yhhu 3792, fibronectin, TPCA-1, GW9662, Z-vad-fmk, VEGF, FIG. 5; for factor contribution (impact) on expression of CRHBP: 8-factor experiment tropoelastin, lipid mixture, propionate, biotin, geltrex, N-acetyl cysteine, prostaglandin E2, VPA, FIG. 3/4; for factor contribution on expression of MEG3: same 8-factor experiment optimized for maximum MEG3, FIG. 2
Text: This example utilizes a method of High-Dimensional Design of Experiments (HD-DoE), as previously described in Bukys et al. (2020) Iscience 23:101346. The method employs computerized design geometries to simultaneously test multiple process inputs and offers mathematical modeling of a deep effector/response space. The method allows for finding combinatorial signaling inputs that control a complex process, such as during cell differentiation. It allows testing of multiple plausible critical process parameters, as such parameters impact output responses, such as gene expression. Because gene expression provides hallmark features of the phenotype of, for example, a human cell, the method can be applied to identify, and understand, which signaling pathways control cell fate. In the current example, the HD-DOE method was applied with the intent to find conditions for expansion and maintenance of HSCs.
Specifically, to develop the HSC recipe, the impact of agonists and antagonists of multiple signaling pathways (herein called effectors) were tested on expression of two sets of 53 pre-selected genes after a 3-day treatment. Specific genes in the measured subset are highly enriched in HSC and include CRHBP, MLLT3, MEG3, MECOM, HOXA5 and GATA2. The effectors chosen include small molecules or proteins, some of which are used during in vitro expansion of HSC.
To test the effectors, experiments with at least 8 factors were designed that can assess the response of cells to 48 or more different combinations of effectors in a range of concentrations. To analyze the models, we focused on expression of genes that are either expressed or enriched in primitive HSC including CRHBP, GATA2, MLLT3 and MEG3. The impact of each effector on gene expression level is defined by a parameter called factor contribution that is calculated for each effector during the modeling. All the experiments were conducted using a CD34^+ population of cells isolated from cord blood.
To identify the recipe for HSC expansion, cells were treated with various effectors for 3 days in media containing stem cell factor (SCF) and thrombopoietin (TPO) and the gene expression of cells was modeled. […] Additionally, on this model we observed NOTCH1 upregulation and MPO downregulation. […] Previous studies have shown that NOTCH1 activation increases HSC self-renewal in vivo (Stier et al. (2002) Blood 99:2369-78).
To further improve the recipe for HSC maintenance and expansion, additional HD-DoE experiments were performed. […] The goal was to evaluate further factors to possibly increase the complexity of the signaling inputs to attain effective fate control. As previously, we focused on expression of HSC enriched genes mentioned earlier. An 8-factor experiment was performed, testing tropoelastin, lipid mixture, propionate, biotin, geltrex, N-acetyl cysteine, prostaglandin E2, and VPA. Similar to the previous experiment, CD34^+ cells were treated with 48 conditions of combinations of the factors for 3 days and gene expression analysis and modeling was performed.
To further improve the recipe for HSC maintenance and expansion, additional HD-DoE experiments were performed. Another 8-factor experiment was performed consisting of LPA, Yhhu 3792, fibronectin, TPCA-1, GW9662, Z-vad-fmk, VEGF and activin A. Similarly to the previous experiment, CD34^+ cells were treated with 48 conditions of combinations of the factors for 3 days and then gene expression analysis experiments were conducted.

[2] = test system: CD34+ population of cells isolated from cord blood; assay: Factor criticality analysis (dynamic profile analysis) of HSC expansion recipe; parameters: GATA2 expression level / MEG3 expression level / CRHBP expression level: unit not given here
Text: In this example, to assess the impact of elimination of each validated factor identified as described in Example 1, dynamic profile analysis was used and compared the expression level of genes of interest in the absence of each finalized factor while others are kept present. […] The results of the criticality analysis for the factors FICZ, LPA, Vit. C and Activin A are shown in FIG. 6A-B. The results of the criticality analysis for VPA are shown in FIG. 7A-B. The results of the criticality analysis for Yhhu 3792 are shown in and FIG. 8A-B.
For the HSC expansion recipe, each of the six finalized factors were removed while other five factors were present and the expression levels of GATA2, HOXA5, CRHBP was assessed compared to the presence of all […]. Because SCF and TPO are cytokines impacting cell growth and survival, our recipe included these cytokines as well. When FICZ was removed, values for GATA2 expression decreased from 642 to 512, while HOXA5 and MEG3 expression was unchanged. […] Removal of Vit.C decreased the level of MEG3 from 82 to 53. Activin A is a critical factor for MEG3, since its removal decreases MEG3 levels from 81 to 40.

[3] = test system: CD34+ cells; assay: Culture of CD34+ cells in the presence of commonly used cytokines
Protocol: To further validate the HSC culture recipe described in Example 1, CD34+ cord blood derived cells were grown for 7 days in media comprising the ingredients shown in Table 1 and flow cytometry analysis was used to assess markers of the LT-HSC state. Markers tested included Lineage (CD3, CD14, CD16, CD19, CD20, CD56), CD34, CD38, CD45RA and CD90. Additionally, cells were grown in media with SCF and TPO as a control, commonly used by others to promote HSC expansion. […] 100,000 cells were plated for each condition.

[4] = 8-factor experiment LPA, activin A, 3 days
[5] = named factor removed, other factors present
[6] = 8-factor experiment with tropoelastin ... VPA
[7] = 8-factor experiment with tropoelastin ... VPA optimized for maximum GATA2, FIG. 4
[8] = 8-factor experiment LPA, FICZ, Pyrintegrin, Laminin521, G0693, Vit.C, G-SCF, activin A, 3 days, media with SCF and TPO, FIG. 1/2

Molecule: fibronectin
- factor contribution on expression of CRHBP [1, 4]: 18

Molecule: lysophosphatidic acid [LPA]
- factor contribution on expression of CRHBP [1, 4]: 8
- GATA2 expression level ([2]; all finalized factors present): 644
- GATA2 expression level [2, 5]: 525

Molecule: CCC(=O)O [Propionate, propionate]
- factor contribution (impact) on expression of CRHBP ([1]; 3 days): 8

Molecule: L-ascorbic acid phosphate sesquimagnesium salt hydrate [Vit.C]
- factor contribution (impact) on expression of GATA2 ([1]; 8-factor experiment LPA, FICZ, Pyrintegrin, Laminin521, G0693, Vit.C, G-SCF, activin A, 3 days, media with SCF and TPO, FIG. 1/2, hydrate): 12
- factor contribution (impact) on expression of GATA2 ([1]; 8-factor experiment LPA, FICZ, Pyrintegrin, Laminin521, G0693, Vit.C, G-SCF, activin A, 3 days, media with SCF and TPO, FIG. 1/2, listed as Vit. C, hydrate): positive impact
- factor contribution on expression of MEG3 [1]: 16
- MEG3 expression level ([2]; all finalized factors present): 82
- MEG3 expression level [2, 5]: 53

Molecule: CCCCC[C@H](O)/C=C/[C@H]1[C@H](O)CC(=O)[C@@H]1C/C=C\CCCC(=O)O [prostaglandin E2]
- effect of treatment on other HSC enriched genes [1, 6]: downregulates
- factor contribution (impact) on expression of GATA2 [1, 7]: 25

Molecule: CC(=O)N[C@@H](CS)C(=O)O [N-acetyl cysteine]
- factor contribution (impact) on expression of CRHBP ([1]; 3 days): < 1

Molecule: COc1cccc(Oc2cccc3nc(Nc4ccc(C(C)C)cc4)nc(N)c23)c1 [Yhhu 3792]
- factor contribution on expression of CRHBP [1, 4]: 19
- CRHBP expression level ([2]; all finalized factors present): 202
- CRHBP expression level [2, 5]: 169

Molecule: CCCC(CCC)C(=O)O [VPA, Valproic acid]
- impact on expression of MEG3 ([1]; 8-factor experiment with tropoelastin ... VPA, FIG. 4): positive impact
- CRHBP expression level ([2]; all finalized factors present): 285
- MEG3 expression level ([2]; all finalized factors present): 106
- CRHBP expression level [2, 5]: 138
- GATA2 expression level [2, 5]: reduced
- MEG3 expression level [2, 5]: 52

Molecule: O=C(O)CCCC[C@@H]1SC[C@@H]2NC(=O)N[C@@H]21 [biotin]
- factor contribution (impact) on expression of CRHBP ([1]; 3 days): 5

Molecule: O=Cc1c2c(cc3c1=Nc1ccccc1-3)=Nc1ccccc1-2 [FICZ, 6-Formylindolo[3,2-b]carbazole]
- factor contribution (impact) on expression of GATA2 [1, 8]: 21
- factor contribution (impact) on expression of GATA2 ([1]; 8-factor experiment LPA, FICZ, Pyrintegrin, Laminin521, G0693, Vit.C, G-SCF, activin A, 3 days, media with SCF and TPO, FIG. 1/2, listed as FCIZ): positive impact
- GATA2 expression level ([2]; all finalized factors present): 642
- GATA2 expression level [2, 5]: 512
- HOXA5 expression level [2, 5]: unchanged
- MEG3 expression level [2, 5]: unchanged

Molecule: IL6: commonly used cytokine to expand HSC
- lineage bias of CD34+ cells cultured in the presence of the cytokine [3]: induction of a myeloid bias

B1: G-CSF: commonly used cytokine to expand HSC (protein, UniProt P09919 31-207, looked up)
Granulocyte …: TPLGPASSLPQSFLLKCLEQVRKIQGDGAALQEKLVSECATYKLCHPEELVLLGHSLGIPWAPLSSCPSQALQLAGCLSQLHSGLFLYQGLLQALEGISPELGPTLDTLQLDVADFATTIWQQMEELGMAPALQPTQGAMPAFASAFQRRAGGVLVASHLQSFLEVSYRVLRHLAQP
- lineage bias of CD34+ cells cultured in the presence of the cytokine [3]: induction of a myeloid bias

B2: tropoelastin: effector tested in the 8-factor experiment (protein, UniProt P15502 27-786, looked up)
Elastin: GGVPGAIPGGVPGGVFYPGAGLGALGGGALGPGGKPLKPVPGGLAGAGLGAGLGAFPAVTFPGALVPGGVADAAAAYKAAKAGAGLGGVPGVGGLGVSAGAVVPQPGAGVKPGKVPGVGLPGVYPGGVLPGARFPGVGVLPGVPTGAGVKPKAPGVGGAFAGIPGVGPFGGPQPGVPLGYPIKAPKLPGGYGLPYTTGKLPYGYGPGGVAGAAGKAGYPTGTGVGPQAAAAAAAKAAAKFGAGAAGVLPGVGGAGVPGVPGAIPGIGGIAGVGTPAAAAAAAAAAKAAKYGAAAGLVPGGPGFGPGVVGVPGAGVPGVGVPGAGIPVVPGAGIPGAAVPGVVSPEAAAKAAAKAAKYGARPGVGVGGIPTYGVGAGGFPGFGVGVGGIPGVAGVPGVGGVPGVGGVPGVGISPEAQAAAAAKAAKYGAAGAGVLGGLVPGAPGAVPGVPGTGGVPGVGTPAAAAAKAAAKAAQFGLVPGVGVAPGVGVAPGVGVAPGVGLAPGVGVAPGVGVAPGVGVAPGIGPGGVAAAAKSAAKVAAKAQLRAAAGLGAGIPGLGVGVGVPGLGVGAGVPGLGVGAGVPGFGAGADEGVRRSLSPELREGDPSSSQHLPSTPSSPRVPGALAAAKAAKYGAAVPGVLGGLGALGGVGIPGGVVGAGPAAAAAAAKAAAKAAQFGLVGAAGLGGLGVGGLGVPGVGGLGGIPPAAAAKAAKYGAAGLGGVLGGAGQFPLGGVAARPGFGLSPIFPGGACLGKACGRKRK
- effect of treatment on other HSC enriched genes [1, 6]: downregulates
- factor contribution (impact) on expression of GATA2 [1, 7]: 17

B3: Activin A: TGFb pathway agonist (protein, UniProt P08476 311-426, looked up)
Inhibin beta A chain: GLECDGKVNICCKKQFFVSFKDIGWNDWIIAPSGYHANYCEGECPSHIAGTSGSSLSFHSTVINHYRMRGHSPFANLKSCCVPTKLRPMSMLYYDDGQNIIKKDIQNMIVEECGCS
modifications: Inhibin beta A chain
notes: TGFb pathway agonist
- factor contribution (impact) on expression of GATA2 [1, 8]: modest; also recorded: positive impact
- factor contribution on expression of CRHBP [1, 4]: 26
- factor contribution on expression of MEG3 [1]: 23
- MEG3 expression level ([2]; all finalized factors present): 81
- GATA2 expression level [2, 5]: positive impact
- HOXA5 expression level [2, 5]: positive impact
- MEG3 expression level [2, 5]: 40
